In PubChem BioAssay (NCI) one finds TGI and GI50 data, which are given here for ten molecules.

Assay in all cases: inhibition of tumour cell growth, NCI panel, 48 h
For assay [1], the system named is OVCAR-3 ovarian.
The subject of assay [2] is ACHN renal.
For assay [3], the system named is UO-31 renal.
For assay [4], the system named is OVCAR-8 ovarian.
Assay [5] concerns OVCAR-5 ovarian.
Assay [6] deals with SK-MEL-2 melanoma.
Assay [7] relates to HL-60(TB) leukemia.
The test system of assay [8] is UACC-62 melanoma.
The test system of assay [9] is SNB-19 CNS.
The subject of assay [10] is OVCAR-4 ovarian.

Molecules are shown by their SMILES. “And” between values parts separate entries of the source, which are not always exact repeats. Identical values can stand only once.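 1) Cells in 96-well plates. 2) Compound, 48 h, 5 concentrations. 3) Linear interpolation between surrounding doses. 4) Unreached endpoint = highest concentration. Here, GI50 denotes the concentration required for 50% inhibition of growth. TGI: total growth inhibition.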 Where only a bound is given, the exact number is not on record here.

Regarding `COC1(OC)c2no[n+]([O-])c2C(OC)(OC)c2c1no[n+]2[O-]`, the TGI in assay [1] is 28.3 µM; in assay [2], 68.5 µM; in assay [3], > 100 µM; in [4], 26.7 µM; in assay [5], 43.6 µM; in assay [6], 42 µM. The TGI in [7] was 87.6 µM; in assay [8], 24.3 µM; in assay [9], 59.5 µM; in assay [10], > 100 µM.
For the molecule `CC(=O)Oc1ccc(/C=N/NC(N)=S)nc1`, the GI50 is 2.72 µM in [1]; 3.49 µM in assay [2]; 3.51 µM in assay [3]; 2.85 µM in assay [4]; 69 µM in assay [5]; 77 µM in [6]. Moreover, the GI50 was 1.74 µM in [7], 4.36 µM in assay [8], 8.77 µM in assay [9] and 6.03 µM in [10]. Moreover, the TGI was > 100 µM in assay [1]; > 100 µM in assay [2]; 14.1 µM in assay [3]; > 100 µM in assay [4]; > 100 µM in assay [5]; > 100 µM in assay [6]. For the same molecule, the TGI is 8.44 µM in assay [7], > 100 µM in assay [8], > 100 µM in [9] and > 100 µM in assay [10].
Take `Nc1ccc(S(=O)(=O)Nc2cnc3c(Cl)cccc3n2)cc1`: the TGI in assay [1] is 411 µM; in [2], > 750 µM; in assay [3] it was > 56.2 µM and 742 µM; in assay [4] it was > 750 µM; in [5], > 750 µM; in assay [6], 707 µM. Moreover, the TGI in [7] is 637 µM; in [8], > 93.3 µM and 122 µM; in assay [9], 620 µM; in assay [10] it was > 672 µM. Besides, the GI50 in assay [3] is > 55.8 µM; in assay [4] it was 40.1 µM; in [5] it was > 80.7 µM; in assay [7], > 75 µM; in [8], 56.3 µM; in [9] it was > 77.5 µM. Also, in [10], the GI50 is > 78.1 µM.
Consider `CC1=C(C(=O)Nc2ccc(Cl)c(Cl)c2)C(c2ccccc2O)NC(=O)N1` (configuration not stated), for which the GI50 in [1] is 19.1 µM; in assay [2], > 50 µM; in [3], > 50 µM; in [4], 24.8 µM; in assay [5], > 50 µM; in assay [6], > 50 µM. For the same molecule, the GI50 in assay [7] is > 50 µM; in assay [8] it was 35.1 µM; in [9], > 50 µM; in [10] it was 42.7 µM. The TGI in assay [1], in assay [2], in assay [3], in assay [4], in assay [5] and in assay [6] was > 50 µM each time. Also, the TGI in assay [7], in assay [8], in assay [9] and in assay [10] was > 50 µM in each case.
For `CCOC(=O)C(NC(=O)c1[nH]cnc1/N=N/N(C)C)C(C)C` (configuration not stated), the TGI in [1], in assay [2], in [3], in [4], in [5] and in [6] was > 100 µM throughout. Moreover, the TGI in assay [7], in assay [8], in [9] and in [10] was > 100 µM throughout.
With `CCCCCCCCCCCCCc1nn[nH]n1`, the TGI amounted to 32.6 µM in assay [1]; 42.2 µM in [2]; 29.5 µM in assay [3]; 81.1 µM in assay [4]; 33 µM in assay [5]; 33.1 µM in assay [6]. Also, the TGI amounted to 39.9 µM in assay [7], 34.6 µM in assay [8], 33 µM in assay [9] and 35.4 µM in assay [10].
Consider `COc1cccc(/C=C/C(=O)c2cc3c(N)c(C(=O)Nc4cccc5ccccc45)sc3nc2C)c1`, for which the GI50 was 0.892 µM in assay [1]; 1.23 µM in [2]; 0.889 µM in assay [3]; 1.23 µM in assay [4]; 1.42 µM in assay [5]; 1.71 µM in assay [6]. The GI50 in assay [7] is 1.06 µM; in assay [8], 1.09 µM; in assay [9], 1.69 µM; in [10], 2.65 µM. Further, the TGI was 2.07 µM in [1]; 4.36 µM in assay [2]; 2.08 µM in assay [3]; 4.08 µM in assay [4]; 4.6 µM in [5]; > 50 µM in assay [6]. Besides, the TGI in assay [7] is 2.61 µM; in [8] it was 4.74 µM; in assay [9] it was > 50 µM; in assay [10], > 50 µM.
For `CNC(=O)CN(CC(N)=O)C(N)=O`, the TGI in assay [1], in assay [2], in assay [3], in assay [4], in assay [5] and in assay [6] was > 100 µM in each case. For the same molecule, the TGI in [7], in assay [8], in assay [9] and in [10] was > 100 µM each time.
Take `Cc1ccc(NC(=O)CC(=O)N2N=C(N(CCC#N)c3cccc(C)c3)CC2c2ccccc2)cc1` (configuration not stated): the TGI in assay [1], in assay [2], in [3], in assay [4], in assay [5] and in assay [6] was > 100 µM each time. For the same molecule, the TGI in assay [7], in assay [8], in assay [9] and in [10] was > 100 µM throughout.
`C=[CH][Sn]([CH]=C)([O]c1cccc2cccnc12)[O]c1cccc2cccnc12`: the GI50 was 2.53 µM in [1]; 3.26 µM in assay [2]; 3.25 µM in [3]; 3.76 µM in assay [4]; 5.16 µM in assay [5]; 1.72 µM in assay [6]. For the same molecule, the GI50 in assay [7] is 0.619 µM; in assay [8] it was 0.964 µM; in [9], 8.36 µM; in assay [10], 1.38 µM. Further, the TGI in assay [1] stood at 10 µM; in [2] it was 14.1 µM; in [3] it was 9.31 µM; in assay [4] it was 18.2 µM; in assay [5], 13.8 µM; in assay [6] it was 7.87 µM. Also, the TGI in assay [7] was found to be 2.91 µM; in assay [8], 2.5 µM; in [9], 23.8 µM; in [10] it was 4.37 µM.
